Results published in ChEMBL document CHEMBL4118139, “Novel naphthyloxy derivatives - Potent histamine H3 receptor ligands. Synthesis and pharmacological evaluation” (Bioorg Med Chem, 2018).
pIC50, pKi: −log10 of the molar value. The source made the active and inactive calls. No cut-off for these calls is given here.

Experiments:
Rattus norvegicus [1] = assay: In vivo antagonist activity at H3 receptor in RAMH-induced dipsogenic ip dosed Wistar (Krf:(WI) WU) rat model assessed as inhibition of RAMH-water intake administered 30 mins prior to RAMH induction; type: functional
Mus musculus [2] = assay: Neurotoxicity in albino CF-1 mouse at 65 mg/kg after 0.5 hrs by rotarod test; type: toxicity, organism-based; details: in vivo
Mus musculus [3] = assay: Anticonvulsant activity in albino CF-1 mouse assessed as protection against maximal electroshock-induced seizures at 50 mg/kg, ip after 0.5 hrs; type: functional, organism-based
[4] = Neurotoxicity in ip dosed Sprague-Dawley rat after 0.25 hrs by rotarod test; type: toxicity, organism-based; details: in vivo
IMR-32 = assay: Cytotoxicity against human IMR32 cells assessed as reduction in cell viability after 72 hrs by MTS assay; type: cell-based; details: IMR-32, 72 h
Mus musculus [5] = assay: Neurotoxicity in albino CF-1 mouse at 50 mg/kg after 2 hrs by rotarod test; type: toxicity, organism-based; details: in vivo
Mus musculus [6] = assay: Anticonvulsant activity in albino CF-1 mouse assessed as protection against 44 mA current-induced seizure at 50 mg/kg, ip after 0.25 hrs by 6 Hz psychomotor test; type: functional, organism-based
Rattus norvegicus [7] = assay: Anticonvulsant activity in po Sprague-Dawley rat assessed as protection against subcutaneous pentylenetetrazole-induced seizures measured after 1 hr; type: functional
Mus musculus [8] = assay: Effect on spontaneous locomotor activity in ip dosed albino Swiss CD1 mouse assessed as inhibition of number of light beam crossings treated for 30 mins measured for next 30 mins in 10 min intervals; type: organism-based; details: in vivo, 0.5 h
Mus musculus [9] = assay: Neurotoxicity in albino CF-1 mouse at 30 mg/kg, ip after 0.5 hrs by rotarod test; type: toxicity, organism-based; details: in vivo
Mus musculus [10] = assay: Neurotoxicity in albino CF-1 mouse at 50 mg/kg after 1 hr by rotarod test; type: toxicity, organism-based; details: in vivo
Mus musculus [11] = assay: Anticonvulsant activity in ip dosed albino CF-1 mouse assessed as protection against maximal electroshock-induced seizures after 1 hr; type: functional; details: CF-1, ip
Rattus norvegicus [12] = assay: Anticonvulsant activity in ip dosed Sprague-Dawley rat assessed as protection against maximal electroshock-induced seizures after 0.25 hrs; type: functional
Mus musculus [13] = assay: Neurotoxicity in albino CF-1 mouse at 65 mg/kg after 4 hrs by rotarod test; type: toxicity, organism-based; details: in vivo
Mus musculus [14] = assay: Neurotoxicity in albino CF-1 mouse at 30 mg/kg, ip after 0.25 hrs by rotarod test; type: toxicity, organism-based; details: in vivo
Mus musculus [15] = assay: Analgesic activity in ip dosed albino Swiss CD1 mouse assessed reduction in formalin-induced inflammatory pain by measuring reduction in time spent in licking treated prior to formalin injection measured at 0 to 5 mins post formalin injection; type: functional
Mus musculus [16] = assay: Cognition enhancing effect in albino Swiss CD-1 mouse assessed as reversal of scopolamine-induced amnesia at 20 to 30 mg/kg, ip treated 30 mins prior to acquisition trial followed by scopolamine challenge immediately after acquisition trial by passive avoidance test (reference value: 39.31 +/- 4.01 secs); type: functional, organism-based
Rattus norvegicus [17] = assay: Anticonvulsant activity in Sprague-Dawley rat assessed as protection against maximal electroshock-induced seizures at 30 mg/kg, po after 4 hrs; type: functional, organism-based
[18] = Neurotoxicity in ip dosed albino CF-1 mouse after 0.25 hrs by rotarod test; type: toxicity, organism-based; details: in vivo
[19] = Therapeutic index, ratio of ip dosed albino CF-1 mouse TD50 to ip dosed albino CF-1 mouse ED50 for 44 mA current-induced 6 Hz psychomotor test; type: toxicity, organism-based; details: in vivo, read-out: TI
[20] = Therapeutic index, ratio of ip dosed albino CF-1 mouse TD50 to ip dosed albino CF-1 mouse ED50 for MES assay; type: toxicity, organism-based; details: in vivo, read-out: TI
[21] = biological target: Muscarinic acetylcholine receptor M3 (Cavia porcellus) (UniProt Q8VH26); assay: Agonist activity at muscarinic M3 receptor in guinea-pig ileum assessed as induction of contractions at 1 to 3 uM after 15 mins; type: functional
[22] = biological target: Histamine H1 receptor (Cavia porcellus) (UniProt P31389); assay: Agonist activity at histamine H1 receptor in guinea-pig ileum assessed as induction of contractions at 1 to 3 uM after 15 mins; type: functional
Histamine H3 receptor [23] = biological target: T1, Histamine H3 receptor (Homo sapiens, UniProt Q9Y5N1); assay: Displacement of [3H]N-alpha-methylhistamine from full length human H3 receptor expressed in HEK293 cell membranes after 90 mins
Rattus norvegicus [24] = assay: Anticonvulsant activity in Sprague-Dawley rat assessed as protection against maximal electroshock-induced seizures at 30 mg/kg, po after 0.5 hrs; type: functional, organism-based
Mus musculus [25] = assay: Neurotoxicity in albino CF-1 mouse at 50 mg/kg after 0.5 hrs by rotarod test; type: toxicity, organism-based; details: in vivo
Mus musculus [26] = assay: Neurotoxicity in albino CF-1 mouse assessed as increase in subcutaneous pentylenetetrazole-induced continuous seizures at 50 mg/kg, ip measured after 0.25 hrs; type: toxicity, organism-based; details: in vivo
HepG2 = assay: Cytotoxicity against human HepG2 cells assessed as reduction in cell viability after 72 hrs by MTS assay; type: cell-based; details: HepG2, 72 h
Mus musculus [27] = assay: Anticonvulsant activity in ip dosed albino CF-1 mouse assessed as protection against subcutaneous pentylenetetrazole-induced seizures measured after 1 hr; type: functional; details: CF-1, 1 h
Mus musculus [28] = assay: Neurotoxicity in albino CF-1 mouse assessed as increase in subcutaneous pentylenetetrazole-induced continuous seizures at 50 mg/kg, ip measured after 1 hr; type: toxicity, organism-based; details: in vivo
Mus musculus [29] = assay: Neurotoxicity in albino CF-1 mouse at 30 mg/kg, ip after 4 hrs by rotarod test; type: toxicity, organism-based; details: in vivo
Mus musculus [30] = assay: Neurotoxicity in albino CF-1 mouse at 50 mg/kg, ip after 2 hrs by rotarod test; type: toxicity, organism-based; details: in vivo
Histamine H3 receptor [31] = biological target: T1, Histamine H3 receptor; assay: Antagonist activity at human H3 receptor expressed in HEK293 cells assessed as inhibition of RAMH-induced reduction of forskolin-stimulated cAMP accumulation after 30 mins by Ulight-based TR-FRET assay; type: functional, cell-based
Mus musculus [32] = assay: Neurotoxicity in albino CF-1 mouse at 65 mg/kg after 2 hrs by rotarod test; type: toxicity, organism-based; details: in vivo
Rattus norvegicus [33] = assay: Anticonvulsant activity in Sprague-Dawley rat assessed as protection against maximal electroshock-induced seizures at 30 mg/kg, ip after 2 hrs; type: functional, organism-based
Rattus norvegicus [34] = assay: Anticonvulsant activity in Sprague-Dawley rat assessed as protection against maximal electroshock-induced seizures at 65 mg/kg, po after 0.25 hrs; type: functional, organism-based
Mus musculus [35] = assay: Neurotoxicity in albino CF-1 mouse assessed as increase in subcutaneous pentylenetetrazole-induced continuous seizures at 50 mg/kg, ip measured after 2 hrs; type: toxicity, organism-based; details: in vivo

T1 sequence (Q9Y5N1 whole entry): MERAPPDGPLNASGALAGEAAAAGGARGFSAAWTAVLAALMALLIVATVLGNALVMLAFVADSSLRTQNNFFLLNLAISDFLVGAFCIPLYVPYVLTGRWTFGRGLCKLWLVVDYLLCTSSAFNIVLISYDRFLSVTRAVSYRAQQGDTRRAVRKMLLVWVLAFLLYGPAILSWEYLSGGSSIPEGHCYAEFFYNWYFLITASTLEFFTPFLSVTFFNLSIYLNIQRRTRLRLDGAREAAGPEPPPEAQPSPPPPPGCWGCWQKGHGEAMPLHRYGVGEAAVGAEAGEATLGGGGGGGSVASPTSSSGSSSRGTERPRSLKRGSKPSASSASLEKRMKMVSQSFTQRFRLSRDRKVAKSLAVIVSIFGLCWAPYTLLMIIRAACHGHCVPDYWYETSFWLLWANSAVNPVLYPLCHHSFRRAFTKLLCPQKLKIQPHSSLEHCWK
Chain of Histamine H1 receptor (Cavia porcellus) (P31389 whole entry): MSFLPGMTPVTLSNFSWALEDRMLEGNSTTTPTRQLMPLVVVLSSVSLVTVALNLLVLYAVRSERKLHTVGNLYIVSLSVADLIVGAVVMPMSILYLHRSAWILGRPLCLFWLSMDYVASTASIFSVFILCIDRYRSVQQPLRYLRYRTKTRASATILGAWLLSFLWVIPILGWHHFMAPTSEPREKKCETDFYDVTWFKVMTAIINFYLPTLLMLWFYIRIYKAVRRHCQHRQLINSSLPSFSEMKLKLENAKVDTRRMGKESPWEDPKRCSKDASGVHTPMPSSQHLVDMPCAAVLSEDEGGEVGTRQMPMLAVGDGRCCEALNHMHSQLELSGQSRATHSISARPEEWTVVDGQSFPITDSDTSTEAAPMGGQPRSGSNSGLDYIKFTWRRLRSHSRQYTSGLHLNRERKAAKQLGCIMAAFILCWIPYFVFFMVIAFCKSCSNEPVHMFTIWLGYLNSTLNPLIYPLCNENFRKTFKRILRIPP
Chain of Muscarinic acetylcholine receptor M3 (Cavia porcellus) (Q8VH26 1-587): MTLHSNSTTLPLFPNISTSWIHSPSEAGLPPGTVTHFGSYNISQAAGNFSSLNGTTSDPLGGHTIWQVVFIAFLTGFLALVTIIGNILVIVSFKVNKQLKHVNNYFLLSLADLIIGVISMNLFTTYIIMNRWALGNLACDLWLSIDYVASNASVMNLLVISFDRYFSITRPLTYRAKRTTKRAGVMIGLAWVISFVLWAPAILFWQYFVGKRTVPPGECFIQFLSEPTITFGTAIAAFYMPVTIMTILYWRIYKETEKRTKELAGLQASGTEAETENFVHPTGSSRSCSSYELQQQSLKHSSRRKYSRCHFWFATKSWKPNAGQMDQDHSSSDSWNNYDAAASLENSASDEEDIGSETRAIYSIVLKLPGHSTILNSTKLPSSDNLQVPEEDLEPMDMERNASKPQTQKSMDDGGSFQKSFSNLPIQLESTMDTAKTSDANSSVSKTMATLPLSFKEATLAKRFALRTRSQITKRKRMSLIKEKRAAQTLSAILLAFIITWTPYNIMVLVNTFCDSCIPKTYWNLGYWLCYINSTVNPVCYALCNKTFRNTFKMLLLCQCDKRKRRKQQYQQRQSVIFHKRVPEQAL

In the case of `c1ccc2c(OCCCCCN3CCCCC3)cccc2c1`, the ED50 (Rattus norvegicus [1]) was 2.37 mg/kg, the Activity (Mus musculus [2]) was “Non-Toxic” and the Activity (Mus musculus [3]) was “Active”. For the same molecule, the TD50 at 0.25 h [4] was 60.6 mg/kg, the pIC50 (IMR-32) was under 4.30 and the Activity (Mus musculus [5]) was “Non-Toxic”. For the same molecule, the Activity (Mus musculus [6]) was “inactive”, the ED50 (Rattus norvegicus [7]) was over 250 mg/kg and the ED50 (Mus musculus [8]) was 11.43 mg/kg. For the same molecule, the Activity (Mus musculus [9]) was “Non-Toxic”, the Activity (Mus musculus [10]) was “Non-Toxic” and the ED50 (Mus musculus [11]) was 19.2 mg/kg. The ED50 (Rattus norvegicus [12]) was 17.8 mg/kg, the Activity (Mus musculus [13]) was “Non-Toxic” and the Activity (Mus musculus [14]) was “Non-Toxic”. The ED50 (Mus musculus [15]) was 31.1 mg/kg, the Activity (Mus musculus [16]) was “Active” and the Activity (Rattus norvegicus [17]) was “inactive”. The TD50 at 0.25 h [18] was 94.8 mg/kg, the selectivity ratio [19] was 1.6 and the selectivity ratio [20] was 4.9. The Activity [21] was “inactive”, the Activity [22] was “inactive” and the pKi (Histamine H3 receptor [23]) was 7.27. The Activity (Rattus norvegicus [24]) was “inactive”, the Activity (Mus musculus [25]) was “Non-Toxic” and the Activity (Mus musculus [26]) was “Non-Toxic”. For the same molecule, the pIC50 (HepG2) was under 4.30, the ED50 (Mus musculus [27]) was over 100 mg/kg and the Activity (Mus musculus [28]) was “Non-Toxic”. The Activity (Mus musculus [29]) was “Non-Toxic”, the Activity (Mus musculus [30]) was “Non-Toxic” and the pIC50 (Histamine H3 receptor [31]) was 6.78. For the same molecule, the inhibition (Histamine H3 receptor [31]) was “Dose-dependent effect”, the Activity (Mus musculus [32]) was “Non-Toxic” and the Activity (Rattus norvegicus [33]) was “Active”. The Activity (Rattus norvegicus [34]) was “inactive” and the Activity (Mus musculus [35]) was “Non-Toxic”.
